The values below come from patent US7504394B2 (Wyeth, priority 2004, dated 2009).

The test system of one data set is uterine response. The following applies: preclinical models of uterine stimulation; cited from earlier work.
For data set [1], the system named is ovariectomized rat model of osteopenia. The following applies: cited from earlier work.
For data set [2], the system named is MCF-7 cell line (human breast cancer cell line). The following applies: cited from earlier work.
Data set [3] in a line: Equilibrium solubility of bazedoxifene ascorbate in 0.0005 M acetic acid at 37° C. The following applies: aqueous buffer, thermodynamic from solid, filtered 0.2 um, HPLC. In kind it is physicochemical. On the procedure: The samples were rotated at 50 rotation/min for 18 hours. All samples were filtered through 0.2 um (Nylon Acrodisc) filter. Samples were analyzed by HPLC.

In brackets after ≈: the same amount, converted by molar mass.

As to `Cc1c(-c2ccc(O)cc2)n(Cc2ccc(OCCN3CCCCCC3)cc2)c2ccc(O)cc12` [bazedoxifene acetate], the “stimulation of uterine response” value with uterine response is recorded as “little or no stimulation of uterine response”. Also, in data set [1], the “effect on bone loss” value is reported as “estrogen agonist-like effect in preventing bone loss” and the effect on cholesterol entry is given as “reducing cholesterol”. In addition, the estrogen agonist/antagonist behaviour entry in data set [2] is “behaves as an estrogen antagonist”.

For the compound `Cc1c(-c2ccc(O)cc2)n(Cc2ccc(OCCN3CCCCCC3)cc2)c2ccc(O)cc12` [bazedoxifene ascorbate, 1-[4-(2-azepan-1-yl-ethoxy)-benzyl]-2-(4-hydroxy-phenyl)-3-methyl-1H-indol-5-ol], the thermodynamic solubility (as a rule, the concentration in solution at equilibrium with solid) at 18 h in data set [3] is 1660 µg/mL (≈ 3.53 mM).
